From patent US20210070748A1, “INHIBITORS OF BRUTONS TYROSINE KINASE” (Pharmacyclics LLC, priority 2015, published 2021)

Experiments:
Format in all cases: biochemical
[1] = molecular target: EGFR (Homo sapiens, UniProt P00533); test: Inhibition of a panel of kinases, in vitro HotSpot kinase assay: EGFR; settings: D-compounds panel data; 1 μM ATP
Protocol: (§1) The degree of inhibition of a panel of kinases is determined using the in vitro HotSpot kinase assay (purified enzymes, ^33P-ATP, an appropriate substrate and 1 μM ATP).

[2] = molecular target: SRC (Homo sapiens, UniProt P12931); test: Inhibition of a panel of kinases, in vitro HotSpot kinase assay: SRC; settings: D-compounds panel data; 1 μM ATP
Sequence of SRC (P12931 whole entry): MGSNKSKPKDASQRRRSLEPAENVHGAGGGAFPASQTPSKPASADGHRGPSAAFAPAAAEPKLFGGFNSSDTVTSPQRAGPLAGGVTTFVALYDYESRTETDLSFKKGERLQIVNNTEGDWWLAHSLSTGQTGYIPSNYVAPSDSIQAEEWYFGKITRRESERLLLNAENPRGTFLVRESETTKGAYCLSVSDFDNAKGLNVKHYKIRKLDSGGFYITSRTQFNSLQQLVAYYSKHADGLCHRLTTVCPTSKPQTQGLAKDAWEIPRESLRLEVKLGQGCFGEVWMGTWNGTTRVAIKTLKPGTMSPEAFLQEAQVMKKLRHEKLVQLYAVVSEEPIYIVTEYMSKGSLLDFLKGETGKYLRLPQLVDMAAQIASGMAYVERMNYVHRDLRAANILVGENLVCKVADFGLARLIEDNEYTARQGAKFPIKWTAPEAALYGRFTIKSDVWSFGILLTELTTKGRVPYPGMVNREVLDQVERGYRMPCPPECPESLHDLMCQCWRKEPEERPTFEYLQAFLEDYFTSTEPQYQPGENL
Protocol: as §1

[3] = molecular target: T1, ITK (Homo sapiens, UniProt Q08881); test: Inhibition of a panel of kinases, in vitro HotSpot kinase assay: ITK; settings: D-compounds panel data; 1 μM ATP
T1 sequence (Q08881 1-620): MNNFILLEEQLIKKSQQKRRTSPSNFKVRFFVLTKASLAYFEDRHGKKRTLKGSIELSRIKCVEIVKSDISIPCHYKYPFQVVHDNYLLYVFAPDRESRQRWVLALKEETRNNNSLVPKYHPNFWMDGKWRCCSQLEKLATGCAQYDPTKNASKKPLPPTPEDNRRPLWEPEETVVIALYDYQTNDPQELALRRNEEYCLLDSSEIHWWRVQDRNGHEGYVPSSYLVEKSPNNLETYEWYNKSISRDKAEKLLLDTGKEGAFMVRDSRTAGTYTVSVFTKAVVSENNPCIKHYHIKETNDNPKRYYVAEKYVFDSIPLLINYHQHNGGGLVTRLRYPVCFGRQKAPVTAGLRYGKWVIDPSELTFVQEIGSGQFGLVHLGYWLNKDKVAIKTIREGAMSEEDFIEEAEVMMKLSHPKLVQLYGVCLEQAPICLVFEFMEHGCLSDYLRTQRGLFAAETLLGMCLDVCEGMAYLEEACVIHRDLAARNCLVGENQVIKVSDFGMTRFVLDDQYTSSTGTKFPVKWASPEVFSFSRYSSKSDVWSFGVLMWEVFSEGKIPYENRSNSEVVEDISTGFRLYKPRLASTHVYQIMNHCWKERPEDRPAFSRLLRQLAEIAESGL
Protocol: as §1

[4] = molecular target: LCK (Homo sapiens, UniProt P06239); test: Inhibition of a panel of kinases, in vitro HotSpot kinase assay: LCK; settings: D-compounds panel data; 1 μM ATP; read-out: IC50 LCK
Sequence of LCK (P06239 whole entry): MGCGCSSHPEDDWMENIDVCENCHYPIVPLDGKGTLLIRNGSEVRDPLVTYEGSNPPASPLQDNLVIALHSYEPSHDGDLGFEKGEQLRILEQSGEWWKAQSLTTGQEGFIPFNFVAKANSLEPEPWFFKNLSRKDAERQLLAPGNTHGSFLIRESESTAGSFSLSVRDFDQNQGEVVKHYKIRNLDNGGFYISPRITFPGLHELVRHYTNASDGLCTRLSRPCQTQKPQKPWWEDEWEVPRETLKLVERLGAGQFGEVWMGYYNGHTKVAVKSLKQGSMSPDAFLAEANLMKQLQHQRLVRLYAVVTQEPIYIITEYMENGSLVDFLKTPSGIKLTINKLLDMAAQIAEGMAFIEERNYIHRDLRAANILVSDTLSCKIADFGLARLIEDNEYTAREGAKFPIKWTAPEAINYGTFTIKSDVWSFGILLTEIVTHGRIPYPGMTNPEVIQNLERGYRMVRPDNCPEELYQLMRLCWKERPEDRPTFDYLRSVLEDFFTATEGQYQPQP

[5] = molecular target: T2, BTK-WT (Homo sapiens, UniProt Q06187); test: Btk in vitro inhibitory activity (one of Method A TR-FRET, Method B electrophoretic mobility shift, Method C radiometric filter binding); settings: D-compounds panel data; read-out: IC50 BTK-WT
T2 construct: purified from insect cells as a full-length construct containing an N-terminal 6X-His tag; His6 (N); made in house; host or cells: insect cells (baculovirus Sf21 in Method B)
T2 sequence (Q06187 whole entry): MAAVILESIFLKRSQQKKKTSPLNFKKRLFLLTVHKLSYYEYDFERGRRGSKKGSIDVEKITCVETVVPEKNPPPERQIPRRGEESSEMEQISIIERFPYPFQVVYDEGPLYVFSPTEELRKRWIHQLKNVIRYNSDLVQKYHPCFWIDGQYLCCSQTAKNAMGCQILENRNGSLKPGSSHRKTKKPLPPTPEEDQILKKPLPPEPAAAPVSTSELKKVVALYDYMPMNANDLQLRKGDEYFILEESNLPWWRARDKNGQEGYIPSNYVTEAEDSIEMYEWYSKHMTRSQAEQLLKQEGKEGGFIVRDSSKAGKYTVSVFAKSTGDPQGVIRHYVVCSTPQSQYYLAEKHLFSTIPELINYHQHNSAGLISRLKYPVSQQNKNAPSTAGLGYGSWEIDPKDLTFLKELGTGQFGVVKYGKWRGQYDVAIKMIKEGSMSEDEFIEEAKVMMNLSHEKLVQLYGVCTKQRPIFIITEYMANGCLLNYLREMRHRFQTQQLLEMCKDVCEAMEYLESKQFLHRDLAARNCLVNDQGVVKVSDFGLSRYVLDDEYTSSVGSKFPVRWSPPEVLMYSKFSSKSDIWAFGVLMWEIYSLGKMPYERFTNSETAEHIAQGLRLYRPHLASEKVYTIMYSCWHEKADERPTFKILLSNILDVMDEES

Sequence of EGFR (P00533 25-1210): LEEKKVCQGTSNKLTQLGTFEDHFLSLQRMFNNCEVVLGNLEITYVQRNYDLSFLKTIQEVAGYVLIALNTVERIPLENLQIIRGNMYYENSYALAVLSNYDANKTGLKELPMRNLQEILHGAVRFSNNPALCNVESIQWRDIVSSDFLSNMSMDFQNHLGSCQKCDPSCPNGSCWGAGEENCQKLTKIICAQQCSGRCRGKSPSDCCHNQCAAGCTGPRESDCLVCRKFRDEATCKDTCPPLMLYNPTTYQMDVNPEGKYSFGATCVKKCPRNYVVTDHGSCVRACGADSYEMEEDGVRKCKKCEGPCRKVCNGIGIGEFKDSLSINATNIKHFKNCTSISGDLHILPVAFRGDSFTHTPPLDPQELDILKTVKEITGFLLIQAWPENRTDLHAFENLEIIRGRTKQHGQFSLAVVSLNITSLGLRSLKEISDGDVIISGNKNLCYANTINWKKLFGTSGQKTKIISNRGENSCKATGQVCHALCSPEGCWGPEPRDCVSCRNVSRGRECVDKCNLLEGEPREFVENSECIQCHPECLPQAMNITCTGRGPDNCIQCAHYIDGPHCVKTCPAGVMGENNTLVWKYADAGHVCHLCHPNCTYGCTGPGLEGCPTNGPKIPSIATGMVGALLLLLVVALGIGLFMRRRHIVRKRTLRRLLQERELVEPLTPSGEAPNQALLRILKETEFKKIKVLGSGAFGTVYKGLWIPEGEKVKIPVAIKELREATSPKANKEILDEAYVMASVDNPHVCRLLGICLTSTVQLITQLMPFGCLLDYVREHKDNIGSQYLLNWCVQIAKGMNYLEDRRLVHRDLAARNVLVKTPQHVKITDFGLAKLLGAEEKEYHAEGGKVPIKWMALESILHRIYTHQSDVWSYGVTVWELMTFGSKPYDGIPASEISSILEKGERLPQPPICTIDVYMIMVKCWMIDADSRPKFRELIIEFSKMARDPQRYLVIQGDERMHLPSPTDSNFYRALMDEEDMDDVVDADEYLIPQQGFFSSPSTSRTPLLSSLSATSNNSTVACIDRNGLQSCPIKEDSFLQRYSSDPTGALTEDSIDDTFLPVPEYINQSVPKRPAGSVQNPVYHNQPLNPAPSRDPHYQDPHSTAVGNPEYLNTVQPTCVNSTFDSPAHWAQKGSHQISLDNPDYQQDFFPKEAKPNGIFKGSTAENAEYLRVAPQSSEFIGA

SMILES	IC50 [1] [nM]	IC50 [2] [nM]	IC50 [3] [nM]	IC50 [4] [nM]	IC50 [5] [nM]
CN1CCC(n2cc(Nc3nc(N4CCC[C@@H](n5ccc6cc(C7CC7)ccc6c5=O)C4)cnc3C(N)=O)cn2)CC1 [Example D-141, 5-[(3R)-3-(6-cyclopropyl-1-oxo-1,2-dihydroisoquinolin-2-yl)piperidin-1-yl]-3-{[1-(1-methylpiperidin-4-yl)-1H-pyrazol-4-yl]amino}pyrazine-2-carboxamide]	1000 to 10000	100 to 1000	100 to 1000	100 to 1000	≤ 10
C[C@H]1CC[C@@H](NC(=O)c2ccc(C3CC3)cc2)CN1c1cnc(C(N)=O)c(Nc2cnn(C)c2)n1 [Example D-142, 5-[(2S,5R)-5-(4-cyclopropylbenzamido)-2-methylpiperidin-1-yl]-3-[(1-methyl-1H-pyrazol-4-yl)amino]pyrazine-2-carboxamide]	1000 to 10000	10 to 100	1000 to 10000	10 to 100	≤ 10
C[C@@H]1CC[C@@H](NC(=O)c2ccc(C3CC3)cc2)CN1c1cnc(C(N)=O)c(Nc2cnn(C)c2)n1 [Example D-143, 5-[(2R,5R)-5-(4-cyclopropylbenzamido)-2-methylpiperidin-1-yl]-3-[(1-methyl-1H-pyrazol-4-yl)amino]pyrazine-2-carboxamide]	1000 to 10000	1000 to 10000	> 10000	1000 to 10000	10 to 100
C[C@H]1CC[C@H](NC(=O)c2ccc(C3CC3)cc2)CN1c1cnc(C(N)=O)c(Nc2cnn(C)c2)n1 [Example D-144, 5-[(2S,5S)-5-(4-cyclopropylbenzamido)-2-methylpiperidin-1-yl]-3-[(1-methyl-1H-pyrazol-4-yl)amino]pyrazine-2-carboxamide]	> 10000	1000 to 10000	> 10000	1000 to 10000	100 to 1000
C[C@@H]1CC[C@H](NC(=O)c2ccc(C3CC3)cc2)CN1c1cnc(C(N)=O)c(Nc2cnn(C)c2)n1 [Example D-145, 5-[(2R,5S)-5-(4-cyclopropylbenzamido)-2-methylpiperidin-1-yl]-3-[(1-methyl-1H-pyrazol-4-yl)amino]pyrazine-2-carboxamide]	1000 to 10000	1000 to 10000	> 10000	1000 to 10000	10 to 100
C[C@@H]1[C@H](NC(=O)c2ccc(C3CC3)cc2)CCCN1c1cnc(C(N)=O)c(Nc2ccc(N3CCN(C)CC3)c(F)c2)n1 [Example D-146, 5-[(2R,3R)-3-(4-cyclopropylbenzamido)-2-methylpiperidin-1-yl]-3-{[3-fluoro-4-(4-methylpiperazin-1-yl)phenyl]amino}pyrazine-2-carboxamide]	100 to 1000	10 to 100	10 to 100	10 to 100	≤ 10
Cn1cc(Nc2nc(N3CCCC4(C3)CN(c3ccc(C5CC5)cc3)C(=O)O4)cnc2C(N)=O)cn1 [Example D-147, 5-[3-(4-cyclopropylphenyl)-2-oxo-1-oxa-3,7-diazaspiro[4.5]decan-7-yl]-3-[(1-methyl-1H-pyrazol-4-yl)amino]pyrazine-2-carboxamide]	1000 to 10000	100 to 1000	> 10000	100 to 1000	10 to 100
Cc1cccc(-c2cnc(C3CCCN(c4cnc(C(N)=O)c(Nc5cnn(C)c5)n4)C3)[nH]2)c1 [Example D-148, 3-[(1-methyl-1H-pyrazol-4-yl)amino]-5-{3-[5-(3-methylphenyl)-1H-imidazol-2-yl]piperidin-1-yl}pyrazine-2-carboxamide]	1000 to 10000	100 to 1000	1000 to 10000	100 to 1000	10 to 100
C[C@@H]1CC[C@H](NC(=O)c2ccc(C3CC3)cc2)CN1c1cnc(C(N)=O)c(Nc2ccc(N3CCN(C)CC3)c(F)c2)n1 [Example D-149, 5-[(2R,5 S)-5-(4-cyclopropylbenzamido)-2-methylpiperidin-1-yl]-3-{[3-fluoro-4-(4-methylpiperazin-1-yl)phenyl]amino}pyrazine-2-carboxamide]	> 10000	100 to 1000	100 to 1000	100 to 1000	10 to 100
C[C@H]1CC[C@@H](NC(=O)c2ccc(C3CC3)cc2)CN1c1cnc(C(N)=O)c(Nc2ccc(N3CCN(C)CC3)c(F)c2)n1 [Example D-150, 5-[(2S,5R)-5-(4-cyclopropylbenzamido)-2-methylpiperidin-1-yl]-3-{[3-fluoro-4-(4-methylpiperazin-1-yl)phenyl]amino}pyrazine-2-carboxamide]	100 to 1000	10 to 100	100 to 1000	10 to 100	≤ 10
C[C@@H]1CC[C@H](NC(=O)N(C)C)CN1c1cnc(C(N)=O)c(Nc2cnn(C)c2)n1 [Example D-151, 5-[(2R,5S)-5-[(dimethylcarbamoyl)amino]-2-methylpiperidin-1-yl]-3-[(1-methyl-1H-pyrazol-4-yl)amino]pyrazine-2-carboxamide]	1000 to 10000	100 to 1000	1000 to 10000	10 to 100	10 to 100
C[C@H]1CC[C@@H](NC(=O)N(C)C)CN1c1cnc(C(N)=O)c(Nc2cnn(C)c2)n1 [Example D-152, 5-[(2S,5R)-5-[(dimethylcarbamoyl)amino]-2-methylpiperidin-1-yl]-3-[(1-methyl-1H-pyrazol-4-yl)amino]pyrazine-2-carboxamide]	1000 to 10000	100 to 1000	1000 to 10000	1000 to 10000	10 to 100
C[C@@H]1CC[C@H](NC(=O)c2ccc(C3CC3)cc2)CN1c1cnc(C(N)=O)c(Nc2ccc(N3CCN(C)CC3)cc2)n1 [Example D-153, 5-[(2R,5S)-5-(4-cyclopropylbenzamido)-2-methylpiperidin-1-yl]-3-{[4-(4-methylpiperazin-1-yl)phenyl]amino}pyrazine-2-carboxamide]	100 to 1000	10 to 100	10 to 100	10 to 100	≤ 10
C[C@H]1CC[C@@H](NC(=O)c2ccc(C3CC3)cc2)CN1c1cnc(C(N)=O)c(Nc2ccc(N3CCN(C)CC3)cc2)n1 [Example D-154, 5-[(2S,5R)-5-(4-cyclopropylbenzamido)-2-methylpiperidin-1-yl]-3-{[4-(4-methylpiperazin-1-yl)phenyl]amino}pyrazine-2-carboxamide]	> 10000	100 to 1000	1000 to 10000	100 to 1000	≤ 10
CN(C)c1ccc2c(=O)n([C@@H]3CCCN(c4cnc(C(N)=O)c(Nc5cnn(C)c5)n4)C3)ccc2c1 [Example D-155, 5-[(3R)-3-[6-(dimethylamino)-1-oxo-1,2-dihydroisoquinolin-2-yl]piperidin-1-yl]-3-[(1-methyl-1H-pyrazol-4-yl)amino]pyrazine-2-carboxamide]	1000 to 10000	100 to 1000	100 to 1000	100 to 1000	≤ 10
CN(C)c1ccc2c(c1)CCN([C@@H]1CCCN(c3cnc(C(N)=O)c(Nc4cnn(C)c4)n3)C1)C2=O [Example D-156, 5-[(3R)-3-[6-(dimethylamino)-1-oxo-1,2,3,4-tetrahydroisoquinolin-2-yl]piperidin-1-yl]-3-[(1-methyl-1H-pyrazol-4-yl)amino]pyrazine-2-carboxamide]	> 10000	100 to 1000	100 to 1000	1000 to 10000	≤ 10
